Measured values: US20140005163A1 (NOVARTIS AG, priority 2010, published 2014)

Columns and labels:
PI3K beta = target: T1, PI3K beta (Homo sapiens, UniProt P42338); assay: PI3K beta kinase assay (Kinase-Glo luminescence); format: biochemical
T1 construct: for the full-length p110-b subunit are generated and fused by overlapping PCR; p85(iSH2) fusion partner (see partner chain) (N); His tag (C); made in house; host or cells: baculovirus; Tn5 (Trichoplusia ni) or TiniPro insect cells
How it was run: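 Full-length p110β with a Gly-linked p85 iSH2 and a C-terminal His tag (BV949, 25 nM) was incubated with 10 μg/mL phosphatidylinositol and 1 μM ATP in 10 mM Tris pH 7.5, 3 mM MgCl2, 50 mM NaCl, 0.05% CHAPS, 1 mM DTT for 60 min at room temperature. Residual ATP was read by Kinase-Glo luminescence.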

PI3K delta = target: T2, PI3K delta (Homo sapiens, UniProt O00329); assay: PI3K delta kinase assay (Kinase-Glo luminescence); format: biochemical
T2 construct: for the full-length p110-d subunit are generated and fused by overlapping PCR; p85(iSH2) fusion partner (see partner chain) (N); His tag (C); made in house; host or cells: baculovirus; Tn5 (Trichoplusia ni) or TiniPro insect cells
How it was run: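 ATP depletion was measured by Kinase-Glo luminescence after a 60-minute room-temperature reaction containing 1 μM ATP, 10 μg/mL PI and 10 nM His-tagged p85(iSH2)-linker-p110δ (BV-1060). Buffer: Tris pH 7.5, 3 mM MgCl2, 50 mM NaCl, 0.05% CHAPS, 1 mM DTT. IC50 values came from four-parameter fits over eight concentrations.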

[1] = test system: PKB Ser473 phosphorylation in Rat1-myr-HA-p110 beta cells; assay: Reverse protein array assay, PKB Ser473 phosphorylation in Rat1-myr-p110 beta cells; format: cell-based; conditions: 0.5 h, pAkt Ser473, 30 minutes incubation, read-out: p-PKB IC50
How it was run: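 Cells: Rat1-myr-HA-p110 alpha/beta/delta, seeded ≥20 h. Lysis on ice 10 min; reverse-phase protein array, 4 lysate dilutions; fluorescence read, relative intensity.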

T2 sequence (O00329 with tags, fused parts or gaps limits assumed): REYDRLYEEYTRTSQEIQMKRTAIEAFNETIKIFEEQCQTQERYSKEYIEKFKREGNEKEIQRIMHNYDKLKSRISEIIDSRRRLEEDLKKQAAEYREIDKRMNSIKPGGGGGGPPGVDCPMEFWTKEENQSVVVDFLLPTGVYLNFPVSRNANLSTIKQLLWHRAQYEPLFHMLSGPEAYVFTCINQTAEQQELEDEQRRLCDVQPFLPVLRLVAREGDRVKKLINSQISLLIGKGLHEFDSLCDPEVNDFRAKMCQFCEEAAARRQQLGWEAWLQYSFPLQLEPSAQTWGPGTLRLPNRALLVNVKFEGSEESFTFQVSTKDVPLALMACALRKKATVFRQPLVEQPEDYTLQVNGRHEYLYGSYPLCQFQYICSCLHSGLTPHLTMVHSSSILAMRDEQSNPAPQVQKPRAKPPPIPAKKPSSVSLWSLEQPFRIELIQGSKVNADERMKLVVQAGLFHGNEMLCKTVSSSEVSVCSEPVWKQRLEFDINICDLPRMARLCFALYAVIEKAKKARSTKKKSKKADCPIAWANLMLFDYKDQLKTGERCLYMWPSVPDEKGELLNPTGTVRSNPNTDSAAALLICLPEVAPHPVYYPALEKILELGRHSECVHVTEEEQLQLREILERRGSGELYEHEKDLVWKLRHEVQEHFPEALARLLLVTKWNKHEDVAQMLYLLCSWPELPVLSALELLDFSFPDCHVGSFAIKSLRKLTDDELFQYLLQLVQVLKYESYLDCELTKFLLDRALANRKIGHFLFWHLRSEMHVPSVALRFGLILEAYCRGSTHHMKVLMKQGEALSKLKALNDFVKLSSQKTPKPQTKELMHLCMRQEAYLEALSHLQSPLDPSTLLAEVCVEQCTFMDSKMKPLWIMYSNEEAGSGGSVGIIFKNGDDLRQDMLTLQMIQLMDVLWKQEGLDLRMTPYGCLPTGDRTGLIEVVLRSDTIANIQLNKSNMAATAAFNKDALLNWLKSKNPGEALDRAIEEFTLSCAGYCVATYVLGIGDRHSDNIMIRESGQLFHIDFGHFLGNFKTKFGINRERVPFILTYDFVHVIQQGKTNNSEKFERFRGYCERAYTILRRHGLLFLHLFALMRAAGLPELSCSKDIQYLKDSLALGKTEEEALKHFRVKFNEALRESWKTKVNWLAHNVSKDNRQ
T1 sequence (P42338 with tags, fused parts or gaps limits assumed): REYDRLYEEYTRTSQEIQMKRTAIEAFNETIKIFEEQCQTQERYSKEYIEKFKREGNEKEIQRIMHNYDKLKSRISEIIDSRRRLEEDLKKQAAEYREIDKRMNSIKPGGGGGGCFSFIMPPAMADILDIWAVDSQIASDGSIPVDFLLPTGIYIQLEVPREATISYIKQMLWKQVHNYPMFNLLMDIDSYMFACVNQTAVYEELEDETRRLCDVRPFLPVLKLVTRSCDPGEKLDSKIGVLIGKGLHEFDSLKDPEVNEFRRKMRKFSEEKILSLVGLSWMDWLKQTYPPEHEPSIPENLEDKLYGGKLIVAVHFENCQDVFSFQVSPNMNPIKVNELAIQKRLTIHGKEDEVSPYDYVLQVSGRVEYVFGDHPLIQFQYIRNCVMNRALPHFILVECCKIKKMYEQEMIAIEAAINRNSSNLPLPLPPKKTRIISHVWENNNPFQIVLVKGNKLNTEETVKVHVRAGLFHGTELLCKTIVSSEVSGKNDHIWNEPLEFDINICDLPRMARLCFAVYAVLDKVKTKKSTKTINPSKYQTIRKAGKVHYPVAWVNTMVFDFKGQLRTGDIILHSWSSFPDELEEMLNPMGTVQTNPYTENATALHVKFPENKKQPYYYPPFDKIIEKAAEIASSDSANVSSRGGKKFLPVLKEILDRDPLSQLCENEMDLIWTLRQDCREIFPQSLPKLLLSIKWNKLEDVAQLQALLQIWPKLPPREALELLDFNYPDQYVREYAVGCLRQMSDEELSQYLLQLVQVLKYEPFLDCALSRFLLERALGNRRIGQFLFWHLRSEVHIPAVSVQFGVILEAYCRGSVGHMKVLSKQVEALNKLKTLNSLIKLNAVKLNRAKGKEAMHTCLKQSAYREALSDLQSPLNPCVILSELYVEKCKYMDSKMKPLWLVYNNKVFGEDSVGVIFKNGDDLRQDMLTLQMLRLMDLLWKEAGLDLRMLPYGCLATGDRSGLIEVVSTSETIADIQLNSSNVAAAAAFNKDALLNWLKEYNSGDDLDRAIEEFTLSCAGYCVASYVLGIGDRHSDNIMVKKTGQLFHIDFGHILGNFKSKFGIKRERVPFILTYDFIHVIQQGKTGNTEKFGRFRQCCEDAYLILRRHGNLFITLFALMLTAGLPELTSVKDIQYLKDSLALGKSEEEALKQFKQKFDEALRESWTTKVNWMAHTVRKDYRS

Structure (SMILES)	IC50 (PI3K beta)	IC50 (PI3K delta)	IC50 [1]
CCNc1cc(-c2ccc3ncc4c(c3c2)n(-c2cn(C)nc2C)c(=O)n4C)cnc1CO [Example 155.1, 1-(1,3-Dimethyl-1H-pyrazol-4-yl)-8-(5-ethylamino-6-hydroxymethyl-pyridin-3-yl)-3-methyl-1,3-dihydro-imidazo[4,5-c]quinolin-2-one]	19 nM	14 nM	22 nM
CNc1cc(-c2ccc3ncc4c(c3c2)n(-c2cn(C(C)C)nc2C)c(=O)n4C)cnc1CO [Example 158.2, 8-(6-Hydroxymethyl-5-methylamino-pyridin-3-yl)-1-(1-isopropyl-3-methyl-1H-pyrazol-4-yl)-3-methyl-1,3-dihydro-imidazo[4,5-c]quinolin-2-one]	184 nM	8 nM	6 nM
CNc1cc(-c2ccc3ncc4c(c3c2)n(-c2cn(C)nc2Cl)c(=O)n4C)cnc1CO [Example 158.3, 1-(3-Chloro-1-methyl-1H-pyrazol-4-yl)-8-(6-hydroxymethyl-5-methylamino-pyridin-3-yl)-3-methyl-1,3-dihydro-imidazo[4,5-c]quinolin-2-one]	8 nM	4 nM	< 5 nM
CNc1cc(-c2ccc3ncc4c(c3c2)n(-c2cn(C)nc2C)c(=O)n4C)cnc1C [Example 163, 1-(1,3-Dimethyl-1H-pyrazol-4-yl)-3-methyl-8-(6-methyl-5-methylamino-pyridin-3-yl)-1,3-dihydro-imidazo[4,5-c]quinolin-2-one]	10 nM	5 nM	< 5 nM
CCN(C)c1cc(-c2ccc3ncc4c(c3c2)n(-c2cn(C)nc2C)c(=O)n4C)cnc1C [Example 165, 1-(1,3-Dimethyl-1H-pyrazol-4-yl)-8-[5-(ethyl-methyl-amino)-6-methyl-pyridin-3-yl]-3-methyl-1,3-dihydro-imidazo[4,5-c]quinolin-2-one]	25 nM	4 nM	11 nM
Cc1nn(C(C)C)cc1-n1c(=O)n(C)c2cnc3ccc(-c4cnc(N)c(CO)c4)cc3c21 [Example 169.1, 8-(6-Amino-5-hydroxymethyl-pyridin-3-yl)-1-(1-isopropyl-3-methyl-1H-pyrazol-4-yl)-3-methyl-1,3-dihydro-imidazo[4,5-c]quinolin-2-one]	87 nM	22 nM	37 nM
Cc1nn(C)c(C)c1-n1c(=O)n(C)c2cnc3ccc(-c4cnc(N)c(CO)c4)cc3c21 [Example 169.2, 8-(6-Amino-5-hydroxymethyl-pyridin-3-yl)-3-methyl-1-(1,3,5-trimethyl-1H-pyrazol-4-yl)-1,3-dihydro-imidazo[4,5-c]quinolin-2-one]	165 nM	27 nM	586 nM
Cc1nn(C)cc1-n1c(=O)n(C)c2cnc3ccc(-c4cncc(NC5CCC5)c4)cc3c21 [Example 172, 8-(5-Cyclobutylamino-pyridin-3-yl)-1-(1,3-dimethyl-1H-pyrazol-4-yl)-3-methyl-1,3-dihydro-imidazo[4,5-c]quinolin-2-one]	146 nM	33 nM	13 nM
Cc1nn(C)cc1-n1c(=O)n(C)c2cnc3ccc(-c4cncc(N(C)C(C)C)c4)cc3c21 [Example 173, 1-(1,3-Dimethyl-1H-pyrazol-4-yl)-8-[5-(isopropyl-methyl-amino)-pyridin-3-yl]-3-methyl-1,3-dihydro-imidazo[4,5-c]quinolin-2-one]	148 nM	37 nM	29 nM
Cc1nn(C)cc1-n1c(=O)n(C)c2cnc3ccc(-c4cncc(N(C)C)c4)cc3c21 [Example 178, 8-(5-Dimethylamino-pyridin-3-yl)-1-(1,3-dimethyl-1H-pyrazol-4-yl)-3-methyl-1,3-dihydro-imidazo[4,5-c]quinolin-2-one]	274 nM	85 nM	49 nM
CNc1cncc(-c2ccc3ncc4c(c3c2)n(-c2cn(C(C)C)nc2C)c(=O)n4C)c1 [Example 180.2, 1-(1-Isopropyl-3-methyl-1H-pyrazol-4-yl)-3-methyl-8-(5-methylamino-pyridin-3-yl)-1,3-dihydro-imidazo[4,5-c]quinolin-2-one]	42 nM	6 nM	32 nM
CCOc1cc(-c2ccc3ncc4c(c3c2)n(-c2cn(C)nc2C)c(=O)n4C)cnc1CC [Example 187, 1-(1,3-Dimethyl-1H-pyrazol-4-yl)-8-(5-ethoxy-6-ethyl-pyridin-3-yl)-3-methyl-1,3-dihydro-imidazo[4,5-c]quinolin-2-one]	28 nM	8 nM	37 nM
CCc1ncc(-c2ccc3ncc4c(c3c2)n(-c2cn(C)nc2C)c(=O)n4C)cc1O [Example 188, 1-(1,3-Dimethyl-1H-pyrazol-4-yl)-8-(6-ethyl-5-hydroxy-pyridin-3-yl)-3-methyl-1,3-dihydro-imidazo[4,5-c]quinolin-2-one]	30 nM	4 nM	22 nM
Cc1nn(C)cc1-n1c(=O)n(C)c2cnc3ccc(-c4cnc(CO)c(OC(CF)CF)c4)cc3c21 [Example 192, 1-(1,3-Dimethyl-1H-pyrazol-4-yl)-8-[5-(2-fluoro-1-fluoromethyl-ethoxy)-6-hydroxymethyl-pyridin-3-yl]-3-methyl-1,3-dihydro-imidazo[4,5-c]quinolin-2-one]	6 nM	5 nM	38 nM
COCc1ccc(-c2ccc3ncc4c(c3c2)n(-c2cn(C)nc2Cl)c(=O)n4C)cn1 [Example 203, 1-(3-Chloro-1-methyl-1H-pyrazol-4-yl)-8-(6-methoxymethyl-pyridin-3-yl)-3-methyl-1,3-dihydro-imidazo[4,5-c]quinolin-2-one]	104 nM	8 nM	13 nM
CCc1ncc(-c2ccc3ncc4c(c3c2)n(-c2cn(C)nc2C)c(=O)n4C)cc1N [Example 208, 8-(5-Amino-6-ethyl-pyridin-3-yl)-1-(1,3-dimethyl-1H-pyrazol-4-yl)-3-methyl-1,3-dihydro-imidazo[4,5-c]quinolin-2-one]	76 nM	6 nM	17 nM
CCN1C(=O)OCc2ncc(-c3ccc4ncc5c(c4c3)n(-c3cn(C)nc3C)c(=O)n5C)cc21 [Example 237, 1-(1,3-Dimethyl-1H-pyrazol-4-yl)-8-(1-ethyl-2-oxo-1,4-dihydro-2H-pyrido[3,2-d][1,3]oxazin-7-yl)-3-methyl-1,3-dihydro-imidazo[4,5-c]quinolin-2-one]	7 nM	9 nM	55 nM

Further lines, results first:

IC50 (PI3K beta)	IC50 (PI3K delta)	IC50 [1]	Structure (SMILES)
178 nM	11 nM	58 nM	CCn1cc(-n2c(=O)n(C)c3cnc4ccc(-c5cnc(COC)c(OC(C)C)c5)cc4c32)c(C)n1 [Example 191.2, 1-(1-Ethyl-3-methyl-1H-pyrazol-4-yl)-8-(5-isopropoxy-6-methoxymethyl-pyridin-3-yl)-3-methyl-1,3-dihydro-imidazo[4,5-c]quinolin-2-one]
103 nM	24 nM	77 nM	CCOc1cc(-c2ccc3ncc4c(c3c2)n(-c2cn(C(C)C)nc2C)c(=O)n4C)cnc1COC [Example 197.2, 8-(5-Ethoxy-6-methoxymethyl-pyridin-3-yl)-1-(1-isopropyl-3-methyl-1H-pyrazol-4-yl)-3-methyl-1,3-dihydro-imidazo[4,5-c]quinolin-2-one]
38 nM	7 nM	223 nM	CCNc1ncc(-c2ccc3ncc4c(c3c2)n(-c2cn(C)nc2C)c(=O)n4C)cc1COC [Example 206.1, 1-(1,3-Dimethyl-1H-pyrazol-4-yl)-8-(6-ethylamino-5-methoxymethyl-pyridin-3-yl)-3-methyl-1,3-dihydro-imidazo[4,5-c]quinolin-2-one]
432 nM	57 nM	959 nM	CCNc1ncc(-c2ccc3ncc4c(c3c2)n(-c2c(C)nn(C)c2C)c(=O)n4C)cc1COC [Example 206.2, 8-(6-Ethylamino-5-methoxymethyl-pyridin-3-yl)-3-methyl-1-(1,3,5-trimethyl-1H-pyrazol-4-yl)-1,3-dihydro-imidazo[4,5-c]quinolin-2-one]
7 nM	3 nM	6 nM	Cn1cc(-n2c(=O)n(C)c3cnc4ccc(-c5cncc(C(C)(C)C#N)c5)cc4c32)c(Cl)n1 [Example 220.3, 2-{5-[1-(3-Chloro-1-methyl-1H-pyrazol-4-yl)-3-methyl-2-oxo-2,3-dihydro-1H-imidazo[4,5-c]quinolin-8-yl]-pyridin-3-yl}-2-methyl-propionitrile]
23 nM	6 nM	20 nM	Cc1nn(C)cc1-n1c(=O)n(C)c2cnc3ccc(-c4cncc(C5(C#N)CCC5)c4)cc3c21 [Example 221.1, 1-{5-[1-(1,3-Dimethyl-1H-pyrazol-4-yl)-3-methyl-2-oxo-2,3-dihydro-1H-imidazo[4,5-c]quinolin-8-yl]-pyridin-3-yl}-cyclobutanecarbonitrile]
